How the values were obtained:
[1] = Pharmacokinetics of radioactivity in plasma and blood after a single oral dose of [9-14C]-oleic acid, with or without formoline L112 pre-treatment; type: in vivo, female Göttingen minipigs; settings: untreated minipigs (group A), single oral 10 mg/kg [9-14C]-oleic acid
Procedure: The study consisted of two treatment groups, each consisting of six female Göttingen minipigs. Group A served as the untreated group (control) and group B was pre-treated with polyglucosamine as follows; the animals of group B were dosed with 2 tablets of 500 mg formoline […] (1 g formoline […] in total) followed by approximately 10 ml of water via a syringe. The 2 tablets of polyglucosamine were inserted into 2 gelatine capsules. The minipigs were trained to eat these capsules. Thereafter, animals of both groups were allowed to drink water ad libitum. […] One animal of the control group A was inadequately dosed and was omitted from the experiment. The dosing capsules were prepared the day before the dose administration based on the bodyweight determined shortly before dosing and stored under nitrogen and protected from light at 2-10 °C. Immediately following dosing all animals received approximately 10 ml of water via a syringe. After 15 min, animals were allowed to drink water and eat their morning meal. This meal was eaten within a few minutes. The animals were housed in stainless steel metabolism cages under test conditions, 48 h prior to the experimental start date (dosing). Urine and faeces was collected at ambient temperature at 24 h time intervals, starting at 2 days prior to dosing and ending at 144 h post-dose. At each collection period, the cage was rinsed with 100 mL demi-water. […] The cannula was rinsed with physiological saline after each blood sampling. After the last blood sampling of the day the cannula was filled with 3 % poly vinyl pyrrolidone (PVP) and heparin, and closed with a lid. Subsamples of whole blood were collected for analysis and the remaining blood was used for preparation of plasma by centrifugation for 10 min at 2000 g. At the end of the experiment, the cages were rinsed thoroughly with water/ethanol/Triton X-100 (100/100/1; v/v/v). The minipigs were intravenously anaesthetized via the catheter with 60 mg sodium-pentobarbital per kg bodyweight. Next, the animals were sacrificed by exsanguination from the carotid artery. At sacrifice, the complete liver and contents of the gastrointestinal tract were collected. Prior to analysis of radioactivity, the faeces, liver and contents of the gastrointestinal tract were homogenized using an ultrathurrax. Radioactivity in all samples was determined by liquid scintillation counting on a Tri-Carb 3100TR liquid scintillation counter using QuantaSmartTM software. All counts were converted to DPM using tSIE/AEC (transformed Spectral Index of external standards coupled to Automatic Efficiency Correction). Radioactivity in faeces, blood and liver tissue was determined by combustion analysis using a Packard Sample Oxidizer System 307. The CO2 formed was mixed with CarbosorbTM and PermafluorTM and measured by LSC. Kinetic analysis of radioactivity (blood/plasma) was performed using WinNonlin® 6.3 applying non-compartmental model analysis. The following kinetic parameters were calculated where the data allow: Cmax, Tmax, half-life (t1/2), the volume of distribution, clearance, the Area under the concentration-time curve (AUC) (or AUC0-n, AUC0-∞) and the Mean Residence Time (MRT). Statistical analysis was assessed by using Mann-Whitney U-test (non-parametric test) using the Brightstat.

[2] = Recovery of radioactivity in excreta (urine, faeces, cage wash), liver and gastrointestinal tract contents; type: in vivo, female Göttingen minipigs
Procedure: The study consisted of two treatment groups, each consisting of six female Göttingen minipigs. Group A served as the untreated group (control) and group B was pre-treated with polyglucosamine as follows; the animals of group B were dosed with 2 tablets of 500 mg formoline […] (1 g formoline […] in total) followed by approximately 10 ml of water via a syringe. The 2 tablets of polyglucosamine were inserted into 2 gelatine capsules. The minipigs were trained to eat these capsules. Thereafter, animals of both groups were allowed to drink water ad libitum. […] The dosing capsules were prepared the day before the dose administration based on the bodyweight determined shortly before dosing and stored under nitrogen and protected from light at 2-10 °C. Immediately following dosing all animals received approximately 10 ml of water via a syringe. After 15 min, animals were allowed to drink water and eat their morning meal. […] The animals were housed in stainless steel metabolism cages under test conditions, 48 h prior to the experimental start date (dosing). Urine and faeces was collected at ambient temperature at 24 h time intervals, starting at 2 days prior to dosing and ending at 144 h post-dose. At each collection period, the cage was rinsed with 100 mL demi-water. […] The cannula was rinsed with physiological saline after each blood sampling. After the last blood sampling of the day the cannula was filled with 3 % poly vinyl pyrrolidone (PVP) and heparin, and closed with a lid. Subsamples of whole blood were collected for analysis and the remaining blood was used for preparation of plasma by centrifugation for 10 min at 2000 g. At the end of the experiment, the cages were rinsed thoroughly with water/ethanol/Triton X-100 (100/100/1; v/v/v). The minipigs were intravenously anaesthetized via the catheter with 60 mg sodium-pentobarbital per kg bodyweight. Next, the animals were sacrificed by exsanguination from the carotid artery. At sacrifice, the complete liver and contents of the gastrointestinal tract were collected. Prior to analysis of radioactivity, the faeces, liver and contents of the gastrointestinal tract were homogenized using an ultrathurrax. Radioactivity in all samples was determined by liquid scintillation counting on a Tri-Carb 3100TR liquid scintillation counter using QuantaSmartTM software. All counts were converted to DPM using tSIE/AEC (transformed Spectral Index of external standards coupled to Automatic Efficiency Correction). Radioactivity in faeces, blood and liver tissue was determined by combustion analysis using a Packard Sample Oxidizer System 307. The CO2 formed was mixed with CarbosorbTM and PermafluorTM and measured by LSC.

[3] = cited from earlier work
[4] = untreated minipigs, not a mass-balance study
[5] = up to 144 h post-dose, group A untreated, mean ± SD

SMILES: CCCCCCCC/C=[14CH]\CCCCCCCC(=O)O [[9-^14C]-oleic acid]
- AUC(0-12h) ([1]; blood): 40.0 ± 4.8 µg·h/g
- AUC(0-24h) ([1]; blood): 61.7 ± 13.1 µg·h/g
- AUC(0-48h) ([1]; blood): 88.3 ± 19.0 µg·h/g
- AUC(0-60h) ([1]; blood): 97.2 ± 20.6 µg·h/g
- AUC(0-72h) ([1]; blood): 105 ± 22 µg·h/g
- AUCall(0-144h) ([1]; blood): 139 ± 25 µg·h/g
- Cl ([1]; blood): 48.4 ± 7.9 g/h/kg
- Cmax ([9-14C]-oleic acid and/or its metabolites) ([1]; blood): 8.5 ± 2.2 µg/g
- MRTlast ([1]; blood): 43.6 ± 3.1 h
- Tmax ([9-14C]-oleic acid and/or its metabolites) ([1]; blood): 4 ± 3 h
- Vz ([1]; blood): 8860 ± 1848 g/kg
- AUC(0-12h) ([1]; plasma): 65.6 ± 6.0 µg·h/g
- AUC(0-24h) ([1]; plasma): 98.4 ± 17.2 µg·h/g
- AUC(0-48h) ([1]; plasma): 136 ± 28 µg·h/g
- AUC(0-60h) ([1]; plasma): 148 ± 31 µg·h/g
- AUC(0-72h) ([1]; plasma): 157 ± 32 µg·h/g
- AUCall(0-144h) ([1]; plasma): 190 ± 38 µg·h/g
- Cl ([1]; plasma): 40.7 ± 5.5 g/h/kg
- Cmax ([9-14C]-oleic acid and/or its metabolites) ([1]; plasma): 14.1 ± 3.6 µg/g
- MRTlast ([1]; plasma): 35.9 ± 1.8 h
- Tmax ([9-14C]-oleic acid and/or its metabolites) ([1]; plasma): 4 ± 3 h
- Vz ([1]; plasma): 7008 ± 2962 g/kg
- Recovery of radioactivity in urine ([2]; 0–24 h, group A untreated, mean ± SD): 0.79 ± 0.05 % of the applied dose
- Recovery of radioactivity in urine ([2]; 24–48 h, group A untreated, mean ± SD): 0.28 ± 0.10 % of the applied dose
- Recovery of radioactivity in urine ([2]; 48–72 h, group A untreated, mean ± SD): 0.09 ± 0.08 % of the applied dose
- Recovery of radioactivity in urine ([2]; 72–96 h, group A untreated, mean ± SD): 0.08 ± 0.05 % of the applied dose
- Recovery of radioactivity in urine ([2]; 96–120 h, group A untreated, mean ± SD): 0.05 ± 0.03 % of the applied dose
- Recovery of radioactivity in urine ([2]; 120–144 h, group A untreated, mean ± SD): 0.03 ± 0.00 % of the applied dose
- Recovery of radioactivity in urine ([2]; -24–0 h (pre-dose), group A untreated, mean ± SD): 0.01 ± 0.00 % of the applied dose
- Recovery of radioactivity in urine ([2]; -48–24 h (pre-dose), group A untreated, mean ± SD): 0.00 ± 0.01 % of the applied dose
- Recovery of radioactivity in Cagewash ([2]; group A untreated, mean ± SD): 0.07 ± 0.07 % of the applied dose
- Recovery of radioactivity in GI-tract contents at sacrifice (144 h post-dose) ([2]; group A untreated, mean ± SD): 0.08 ± 0.04 % of the applied dose
- Recovery of radioactivity in Liver at sacrifice (144 h post-dose) ([2]; group A untreated, mean ± SD): 0.37 ± 0.07 % of the applied dose
- Total excreted (sum urine, faeces, cagewash) ([2]; group A untreated, mean ± SD): 7.90 ± 3.13 % of the applied dose
- Overall recovery of the dosed amount of radioactivity (based on the AUC0-12h) [2, 4]: 34.7%
- Overall recovery of the dosed amount of radioactivity (based on the Cmax) [2, 4]: 13.9%
- Recovery of radioactivity in faeces, Total [2, 5]: 6.51 ± 2.88 % of the applied dose
- Recovery of radioactivity in urine, Total [2, 5]: 1.33 ± 0.20 % of the applied dose

SMILES: CCCCCCCC/C=C\CCCCCCCC(=O)O [oleic acid]
- Excreted in the faeces ([3]; 31 test persons with normal fat assimilation, oral doses, radioactively labelled, after 6 days): less than 10%
- Absorption after oral administration ([3]; untreated subjects): absorbed practically completely

Reference: PMC4793533 (BMC obesity, 2016)
